In brackets after ≈: the same amount, converted by molar mass. Several values for one entry are separate records, joined by “and”; a condition that tells them apart may be missing. Identical values can stand only once. Entries after “also recorded” stand apart in the source; their conditions may differ.
Columns and labels:
oropharynx = assay: Sensory effects and cold discomfort of compounds given orally in ODT (general evaluation); type: in vivo, human; conditions: for distribution of the sensation (throat vs chest): oral ODT
Method: The correlation between a chemical's potency at the TRPM8 receptor (measured by the EC50 μM) and potency to evoke sensory events in the oropharynx is complex.
When a test compound is applied to non-keratinizng bodily surfaces (e.g., oropharyngeal surface), it is possible to characterize the resulting sensations.
The sensations are akin to rapid drinking of cold water mixed and equilibrated with ice chips. The intense cold is further accentuated if the drink is acidified, for example, with lemonade. The sensations of dull and intense cold on the surface of the oropharynx can be described as painful, uncomfortable, and aversive. The term “icy cold” is used to describe these adverse intense cold sensations.
Together, these three types of sensations—“icy cold”, coldness in the chest, and systemic coldness—is termed “cold discomfort”. […] The ideal agent must have a circumscribed site of action, and the intensity of the sensation should not cause “icy cold”, coldness in the chest, or systemic chills.

[1] = tested on: oral cavity and pharyngeal surfaces; assay: Sensory activity of ODT-A on volunteers; type: in vivo, human; conditions: 6 to 8 trials per compound
Method: ODT-A was prepared by dissolving the DAPA compound in absolute ethanol, adding a 80% mannitol-20% maltitol mixture of equal weight and then adding an equal volume of distilled water. The mixture was the stirred with a glass rod, and dispensed onto a piece of wax or parchment paper with a disposable plastic pipette. The viscous liquid drop formed was then dried under a heat source for at least 4 hr. The nominal dose of the API in ODT-A ranged from 1 to 3 mg/tablet. The dried tablets weighed on average 150 mg each and when on the dorsal surface of the tongue, rapidly dissolved completely in saliva and coated the oropharyngeal surface. These tablets were suitable for initial pilot studies, but were not uniform in size, were friable, especially in conditions of high ambient humidity, and were not readily amenable to further analytical evaluation.
Sensory Qualities of ODT on the Oral Cavity and Pharyngeal Surfaces The DAPA ODT of Study 2 were evaluated for sensory properties on volunteers. The ODT-A results [see table] are from 6 to 8 trials per compound in several experienced individuals familiar with sensory properties of “cooling agents”. The results of ODT-A will be discussed together with ODT-B and ODT-C.

[2] = tested on: 0.1 N HCl-induced swallowing, pharyngolaryngeal region; assay: Acid-induced swallowing movements in the anesthetized rat; type: in vivo; conditions: for Relative Potency (suppression of swallowing): DAPA-2-5 = 1.0
From the text: A principal endogenous irritant in the linings of the upper aerodigestive tract is hydrochloric acid. Acid stimulations of the mucosa of the pharynx will elicit reflex swallowing. […] In a rat animal model, solutions of organic acids such as acetic acid and citric acid were effective in eliciting swallowing [Kajii et al., Sour taste stimulation facilitates reflex swallowing from the pharynx and larynx in the rat Physiology & Behavior 77: 321-325, 2002]. In the present discovery, the method for measuring sensory responses to acid was adapted for screening agents that might suppress the sensitivity to hydrochloric acid. Agents that suppress the acid challenge may then have utility in relieving the discomfort of heartburn.
Experiments were conducted at the Pavlov Institute of Physiology, St. Petersburg, Russia. Adult male Wistar rats, weighing 200 to 400 g, were obtained from the Roppolovo Vivarium. All rats were anesthetized with sodium pentobarbital/urethane and fixed in the supine position. Body temperature was maintained at 37.0° C. with a heating pad. A midline incision was made in the ventral surface of the neck and the trachea was cannulated. A guide tube (polyethylene, diameter 2.2 mm) was fixed at the midline of the hard palate and an internal infusion tube (polyethylene, diameter 0.9 mm) was then placed flush to the end of soft palate. This procedure allows stimulation of the pharyngolaryngeal region with liquids, with minimum mechanical perturbation. An esophageal tube was placed at the thoracic level to drain solutions after infusion. The infused solution was applied to the pharyngolaryngeal region at a flow rate of 1.5 pUs for 20 sec using an infusion pump, giving a total unit volume of approximately 30 μL. Stimulations were applied at intervals of 2 to 3 min, with intervals allowed for rinsing and cleansing with suction. The solutions infused were distilled water, normal saline, 0.1 N hydrochloric acid, or test compounds dissolved in normal saline. A paired unipolar electrode was inserted into unilateral mylohyoid muscle to record electromyogram (EMG) activity and the signal processed for later analysis. Swallowing movements was identified as the EMG activity and could also be visualized as laryngeal movement. The number of swallows in a fixed interval was used as the endpoint.
The test procedures were similar to those described earlier (see, e.g., Kajii et al., 2002). Also, the drainage of the esophagus was at the thoracic level to avoid mechanical disturbance of the pharynx. The infusion rate of solutions was 1.5 μL/sec for 15 to 18 sec.
The response to 0.1 N HCl infusion (30 μL over an approximately 18 second period) was highly reproducible. On average there were 36±4 swallowing movements within one min (N=7 rats). This response could be elicited in the same rat over a 2 hour period with a rest period or saline infusions at 10 min intervals.
The up-down method of Dixon [Efficient analysis of experimental observations. Ann. Rev. […] The EC50 (N=8) for DAPA-2-5 was estimated to be 0.09 mg/mL.

[3] = molecular target: T1, TRPA1 channels (human TRPA1 gene expressed in CHO cells) (Homo sapiens, UniProt O75762); assay: TRPA1 agonist assay; type: cell-based; conditions: maximum tested concentrations of 100 μM
T1 construct: expressed in transfected cells; host or cells: CHO cells
T1 sequence (O75762 whole entry): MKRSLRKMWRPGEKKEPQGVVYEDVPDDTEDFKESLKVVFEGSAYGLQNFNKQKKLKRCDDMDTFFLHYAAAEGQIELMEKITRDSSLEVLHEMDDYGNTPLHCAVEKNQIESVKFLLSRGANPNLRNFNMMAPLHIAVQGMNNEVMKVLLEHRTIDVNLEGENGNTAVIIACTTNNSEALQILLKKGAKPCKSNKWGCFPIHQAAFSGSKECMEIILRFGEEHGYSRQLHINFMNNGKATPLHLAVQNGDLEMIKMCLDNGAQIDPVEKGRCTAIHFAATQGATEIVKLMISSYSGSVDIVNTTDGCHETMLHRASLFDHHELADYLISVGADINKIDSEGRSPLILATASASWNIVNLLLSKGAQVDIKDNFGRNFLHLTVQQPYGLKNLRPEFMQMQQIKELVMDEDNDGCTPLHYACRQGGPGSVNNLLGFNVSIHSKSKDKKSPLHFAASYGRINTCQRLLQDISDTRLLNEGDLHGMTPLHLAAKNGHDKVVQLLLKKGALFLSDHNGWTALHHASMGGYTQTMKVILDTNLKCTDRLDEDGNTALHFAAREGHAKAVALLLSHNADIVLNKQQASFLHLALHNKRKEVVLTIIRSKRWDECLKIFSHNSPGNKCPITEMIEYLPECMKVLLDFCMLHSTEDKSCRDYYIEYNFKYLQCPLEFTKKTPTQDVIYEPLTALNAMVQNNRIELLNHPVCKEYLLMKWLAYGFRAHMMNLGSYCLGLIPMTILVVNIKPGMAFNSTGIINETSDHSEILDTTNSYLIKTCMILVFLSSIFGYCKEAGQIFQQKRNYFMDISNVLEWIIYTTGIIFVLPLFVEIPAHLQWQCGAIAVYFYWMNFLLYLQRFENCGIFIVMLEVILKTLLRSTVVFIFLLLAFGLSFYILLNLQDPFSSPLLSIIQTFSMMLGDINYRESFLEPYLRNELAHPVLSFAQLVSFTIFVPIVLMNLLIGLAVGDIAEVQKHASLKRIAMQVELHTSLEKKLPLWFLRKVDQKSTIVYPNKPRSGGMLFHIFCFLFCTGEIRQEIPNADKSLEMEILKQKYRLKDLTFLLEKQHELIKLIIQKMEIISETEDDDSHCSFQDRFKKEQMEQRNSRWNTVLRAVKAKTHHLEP
Method: To examine the specificity of the test compounds, further studies were conducted on TRPV1 channels (human TRPV1 gene expressed in HEK293 cells) and TRPA1 channels (human TRPA1 gene expressed in CHO cells). The test cells were Chinese Hamster Ovary (CHO) cells or Human Embyronic Kidney (HEK) 293 cells transfected with human TRPV1 or TRPA1 cDNAs.

rat skin = assay: Irritant activity on shaved abdominal rat skin; type: in vivo; design: key to Redness after 20 μL applied topically to skin (scale of 0 to +++): the presence of redness (irritation) was graded on a scale of 0 to +++; the presence of redness (irritation) was graded on a scale of 0 to +++; the presence of redness (irritation) was graded on a scale of 0 to +++; the presence of redness (irritation) was graded on a scale of 0 to +++; conditions: for Redness after 20 μL applied topically to skin (scale of 0 to +++): pure compound, 1 hour; for skin irritancy in words: undiluted form
Method: This hypothesis was tested by applying 20 μL of the pure compound onto the shaved abdominal skin of a pentobarbital-anesthetized rat. The test substance was enclosed in a circle of ˜1 cm diameter with a ring of cream. The test substance was applied with a micropipette, and after 1 hour the area was wiped with a cotton pad and the presence of redness (irritation) was graded on a scale of 0 to +++.

Row | Compound | distribution of the sensation (throat vs chest) (oropharynx) | Duration [1] [min] | Onset [1] [min] | Sensory Quality [1] | Relative Potency (suppression of swallowing) [2] | sensation at increased dose (oropharynx; dose increased to 8 mg (per tablet)) | duration of “dynamic cool” in the oropharynx (oropharynx; in vivo) | swallows after second acid challenge ([2]; DAPA-2-5 0.4 mg/mL, 10 min after, 8 min after) [swallows per min] | swallows after third acid challenge ([2]; DAPA-2-5 0.4 mg/mL, 15 min after, after saline rinse, 22 min after) [swallows/min] | swallows after first acid challenge ([2]; DAPA-2-5 0.4 mg/mL, challenge 5 min later, within 3 min) [swallows/min] | EC50 ([2]; Rattus norvegicus, up-down method, 50% reduction of swallowing frequency, N=4 to 8, read-out: EC50 ± S.E.M. (mg/mL), suppression of acid-induced swallowing) [mg/mL] | Comments (duration of inhibition) ([2]; rat, in vivo) | Comments (reversibility of inhibition) ([2]; rat, in vivo) | agonist activity on TRPA1 channels [3] | Redness after 20 μL applied topically to skin (scale of 0 to +++) (rat skin) | skin irritancy in words (rat skin) | inhibitory activity for swallowing relative to DAPA-2-5 ([2]; rat, in vivo) [%] | systemic sensations of cold (oropharynx; higher oral doses (e.g., 5 mg or more))
1 | CCCCCCP(=O)(C(C)C)C(C)C [DAPA-1-6, 1-Di(isopropyl)-phosphinoyl-hexane] | sensations of cold in the chest; also recorded: spreads behind the sternum, into the chest | 16 | 0.6 | cool/cold |  |  |  |  |  |  |  |  |  |  |  |  |  | 
2 | CCCCCCCP(=O)(C(C)C)C(C)C [DAPA-1-7, 1-Di(isopropyl)-phosphinoyl-heptane] | spreads behind the sternum, into the chest | 16 | 0.6 | cool/cold | 0.11 |  |  |  |  |  |  |  |  |  |  |  |  | 
3 | CCCCCP(=O)(C(C)CC)C(C)CC (stereo not shown) [DAPA-2-5, 1-Di(sec-butyl)-phosphinoyl-pentane] | remained localized to the throat and upper esophagus | 12 | 0.1 | dynamic cool | 1.0 | burning penetrating quality to the sensation, but it was not aversive; also recorded: did not produce stinging, adverse tastes, or “icy cold” or cold discomfort | 5 to 15 min and 10 to 15 min | 9 | 27 | 3 | 0.09 (≈ 387 µM) | ~15 min | reversible; | did not exhibit any agonist activity | 0 | minimal or no pro-inflammatory actions on the skin |  | 
4 | CCCCCCP(=O)(C(C)CC)C(C)CC (stereo not shown) [DAPA-2-6, 1-Di(sec-butyl) phosphinoyl-hexane] | sensations of cold in the chest; also recorded: spreads behind the sternum, into the chest | 18 | 0.7 | cool/cold | 0.05 |  |  |  |  |  |  |  |  | did not exhibit any agonist activity | + | is a skin irritant | 5 | 
5 | CCCCCCCP(=O)(C(C)CC)C(C)CC (stereo not shown) [DAPA-2-7, 1-Di(sec-butyl) phosphinoyl-heptane] | sensations of cold in the chest; also recorded: spreads behind the sternum, into the chest | 21 | 0.7 | cool/cold | 0.45 |  |  |  |  |  |  | >~30 min | long-lasting; | did not exhibit any agonist activity | ++ | is a skin irritant |  | sensations of cold on other body surfaces
6 | CCCCCCCCP(=O)(C(C)CC)C(C)CC (stereo not shown) [DAPA-2-8, 1-Di(sec-butyl) phosphinoyl-octane] |  | 27 | 1.2 | cool | 0.16 |  |  |  |  |  |  |  |  |  |  |  |  | 

From patent publication US20150111852A1, “1-Di(sec-butyl)-phosphinoyl-pentane (dapa-2-5) as a topical agent” (priority 2013, published 2015)
